Experimental data as given in patent US9340840B2, “Use of selected lactic acid bacteria for reducing infantile colic” (Biogaia AB, priority 2006, dated 2016).

Tests used:
[1] = system: colicky symptoms in breast-fed infants; conditions: within 7 days of treatment; cited from earlier work
[2] = system: Breast-fed infants with a diagnosis of infantile colic; experiment: Selected probiotic strains versus Simethicone in the treatment of infantile colic (crying time, 28 days); assay type: in vivo, human; conditions: for Crying time (mean minutes per day): N = 30 per group
Text: Breast-fed infants with a diagnosis of infantile colic are recruited in the Department of Pediatric and Adolescence Science (Drottning Silvias University Hospital, Goteborg). Patients aged 21-90 days, adequate for gestational age with a birth weight between 2500 and 4000 g, with colic symptoms satisfying the Wessel's criteria, and arisen almost 6±1 days before the enrollment, are considered for inclusion in the study (Wessel M A, Cobb J C, Jackson E B, Harris G S, Detwiler A C. Paroxismal fussing in infancy, sometimes called “colic”. Pediatrics 1954; 14: 421-35). All infants enrolled are exclusively breast-fed in order to reduce variability in the intestinal microflora due to variations in the diet, which may in turn have influenced the response to the probiotic. Infants are excluded if they had clinical evidence of chronic illness or gastrointestinal disorders or if they had received either antibiotics or probiotics in the week preceding recruitment.
In this study, colicky infants are randomized to receive the probiotic or Simethicone in the following treatments:
L. reuteri is administered at a dose of 10^8 colony forming units (CFU) in 5 drops of a commercially available MCT-oil (medium chain tri-glyceride oil) suspension 30 min after feeding, once a day for 28 days. MCT oils occur naturally, and the most abundant source is coconut oil. Most MCT oil is refined from coconut oil. MCT oil is a clear light colored liquid with no flavor and low viscosity. This oil suspension is stable for 21 months at 2-8° C. (as documented by the manufacturer, BioGaia AB, Stockholm, Sweden) (alternative source of MCT oil is Akomed R, by Karlshamns AB, Karlshamn, Sweden). During the study, parents are instructed to keep the product in the refrigerator when not in use. Simethicone (S) was given at a dose of 60 mg/day in 3 mL of a commercially available solution (Mylicon Infants Gas Relief Drops, J&J, 7050 Camp Hill Rd., Fort Washington, Pa., 19034-2210, USA) after feeding, twice a day for 28 days. At the enrollment, all mothers are asked to follow a cows' milk-free diet as reported: avoidance of milk, yogurt, fresh and strong cheese, cream, butter, biscuits. Adherence to the diet is monitored with a diet diary maintained for all the treatment period. At day 7, 14, 21 and 28 one of the researches examined the compliance to this diet.
The day on which the pediatrician saw the infant for the first time is defined as Day-1. On this occasion each infant underwent a medical examination and the parents were interviewed in order to obtain background data concerning type of delivery, birth weight and gestational age, family history of gastrointestinal disease and atopy. In particular, the last one is considered positive if the infants had one or more family members (mother, father and/or older sibling) with atopic eczema, allergic rhinitis or asthma. Moreover, any signs and symptoms of atopic disease during the study period were recorded. Parents were also invited to record data concerning daily average crying time and number of colic episodes on the day after the recruitment (Day 0). The doctor randomly assigned the child to any of the study groups. Administration of study products began on Day 1.
Parents are given written information about the study and are asked to record daily number of inconsolable crying episodes and their duration, stool consistency and frequency as well as any observed side effects (constipation, vomiting, cutaneous reactions, etc) starting from Day 0 up to Day 28, using a structured diary. In order to ensure that all the parents noted crying time in a uniform way and to ensure that the infants are given the medication correctly, one of the researchers is always available by phone to help parents.
Each patient is re-examined by the same pediatrician on Days 1, 7, 14, 21 and 28.

For dimethylpolysiloxane [Simethicone], the “response rate to the treatment” value [1] is given as 7%, the “withdrawal because of any side effect related to the trial” value ([2]; 28 days treatment, 30 infants per group) is given as “No babies are withdrawn because of any side effect” and the “Crying time (mean minutes per day)” value ([2]; Day 0 (before administration), colicky infants) is given as 205 minutes per day. For the same substance, the “Crying time (mean minutes per day)” value ([2]; Day 1, colicky infants) was 194 minutes per day, the “Crying time (mean minutes per day)” value ([2]; Day 7, colicky infants) was 172 minutes per day and the “Crying time (mean minutes per day)” value ([2]; Day 14, colicky infants) was 155 minutes per day. For the same substance, the “Crying time (mean minutes per day)” value ([2]; Day 21, colicky infants) was 148 minutes per day and the “Crying time (mean minutes per day)” value ([2]; Day 28, colicky infants) was 141 minutes per day.
